Converted amounts (≈) assume the structure as drawn. The source made the active and inactive calls. No cut-off for these calls is given here.
What was measured:
Shigella flexneri [1] = test: Antibacterial activity against Shigella flexneri MTCC 1457 after 24 hrs; assay type: functional; settings: MTCC 1457, 24 h
Salmonella typhimurium [2] = test: Antibacterial activity against Salmonella typhimurium MTCC 1251 at 1 mg/disc after 24 hrs by disc diffusion method; assay type: functional, Salmonella enterica subsp. enterica serovar Typhimurium
Shigella flexneri [3] = test: Antibacterial activity against Shigella flexneri MTCC 1457 at 1 mg/disc after 24 hrs by disc diffusion method; assay type: functional
Klebsiella pneumoniae [4] = test: Antibacterial activity against Klebsiella pneumoniae MTCC 109 at 1 mg/disc after 24 hrs by disc diffusion method; assay type: functional
Salmonella typhimurium [5] = test: Antibacterial activity against Salmonella typhimurium MTCC 1251 after 24 hrs; assay type: functional, Salmonella enterica subsp. enterica serovar Typhimurium
Proteus vulgaris [6] = test: Antibacterial activity against Proteus vulgaris MTCC 1771 after 24 hrs; assay type: functional; settings: MTCC 1771, 24 h
Candida albicans [7] = test: Antifungal activity against Candida albicans MTCC 227 after 48 to 72 hrs; assay type: functional
A549 [8] = test: Cytotoxicity against human A549 cells assessed as cell death at 50 ug/ml by MTT assay; assay type: functional
A549 [9] = test: Cytotoxicity against human A549 cells assessed as cell death at 200 ug/ml by MTT assay; assay type: functional
Klebsiella aerogenes [10] = test: Antibacterial activity against Enterobacter aerogenes MTCC 111 after 24 hrs; assay type: functional
A549 [11] = test: Cytotoxicity against human A549 cells assessed as cell death at 100 ug/ml by MTT assay; assay type: functional
Klebsiella aerogenes [12] = test: Antibacterial activity against Enterobacter aerogenes MTCC 111 at 1 mg/disc after 24 hrs by disc diffusion method; assay type: functional
Staphylococcus aureus [13] = test: Antibacterial activity against methicillin-resistant Staphylococcus aureus at 1 mg/disc after 24 hrs by disc diffusion method; assay type: functional
Candida albicans [14] = test: Antifungal activity against Candida albicans MTCC 227 at 1 mg/disc after 48 hrs by disc diffusion method; assay type: functional
Micrococcus luteus [15] = test: Antibacterial activity against Micrococcus luteus MTCC 106 at 1 mg/disc after 24 hrs by disc diffusion method; assay type: functional
[16] = Antifungal activity against Malassezia pachydermatis at 1 mg/disc after 48 hrs by disc diffusion method; assay type: functional
Staphylococcus aureus [17] = test: Antibacterial activity against Staphylococcus aureus MTCC 96 after 24 hrs; assay type: functional; settings: MTCC 96, 24 h
Micrococcus luteus [18] = test: Antibacterial activity against Micrococcus luteus MTCC 106 after 24 hrs; assay type: functional; settings: MTCC 106, 24 h
Proteus vulgaris [19] = test: Antibacterial activity against Proteus vulgaris MTCC 1771 at 1 mg/disc after 24 hrs by disc diffusion method; assay type: functional
Staphylococcus aureus [20] = test: Antibacterial activity against Staphylococcus aureus MTCC 96 at 1 mg/disc after 24 hrs by disc diffusion method; assay type: functional
Klebsiella pneumoniae [21] = test: Antibacterial activity against Klebsiella pneumoniae MTCC 109 after 24 hrs; assay type: functional; settings: MTCC 109, 24 h
Staphylococcus aureus [22] = test: Antibacterial activity against methicillin-resistant Staphylococcus aureus after 24 hrs; assay type: functional
[23] = Salmonella enterica, MTCC 1251, 24 h
[24] = Salmonella enterica subsp. enterica serovar Typhimurium

Row | SMILES | MIC (Shigella flexneri [1]) [µg/mL] | inhibition zone (IZ) (Salmonella typhimurium [2]) [mm] | inhibition zone (IZ) (Shigella flexneri [3]) [mm] | inhibition zone (IZ) (Klebsiella pneumoniae [4]) [mm] | MIC (Salmonella typhimurium [5]; [23]) [µg/mL] | MIC (Proteus vulgaris [6]) [µg/mL] | MIC (Candida albicans [7]) | Activity (A549 [8]) [%] | Activity (A549 [9]) [%] | Activity (A549 [11]) [%] | inhibition zone (IZ) (Klebsiella aerogenes [12]) [mm] | inhibition zone (IZ) (Staphylococcus aureus [13]) [mm] | inhibition zone (IZ) (Candida albicans [14]) [mm] | inhibition zone (IZ) (Micrococcus luteus [15]) [mm] | MIC (Staphylococcus aureus [17]) [µg/mL] | MIC (Micrococcus luteus [18]) [µg/mL] | inhibition zone (IZ) (Proteus vulgaris [19]) [mm] | inhibition zone (IZ) (Staphylococcus aureus [20]) [mm] | MIC (Klebsiella pneumoniae [21]) [µg/mL] | MIC (Staphylococcus aureus [22]) [µg/mL] | also measured
1 | CN1C(=O)[C@@]2(c3ccccc31)N(C)C[C@](C#N)(C(=O)c1c[nH]c3ccccc13)[C@]21C(=O)Nc2ccccc21 | 250 (≈ 498 µM) | 10 | 12 | 13 | 500 (≈ 997 µM) | 125 (≈ 249 µM) | 250 µg/mL (≈ 498 µM) | 1.71 | 13.99 | 7.22 | 8 | 11 | 12 | 11 | 250 (≈ 498 µM) | 250 (≈ 498 µM) | 14 | 13 | 125 (≈ 249 µM) | 500 (≈ 997 µM) | MIC (Klebsiella aerogenes [10]): inactive; inhibition [16]: inactive
2 | CCCCCCN1C(=O)[C@@]2(c3ccccc31)N(C)C[C@](C#N)(C(=O)c1c[nH]c3ccccc13)[C@]21C(=O)Nc2ccccc21 | 500 (≈ 875 µM) | 9 | 10 | 11 | 500 (≈ 875 µM) | 500 (≈ 875 µM) | inactive | 48.03 | 62.03 | 56.74 | 9 | 10 | – | 10 | 125 (≈ 219 µM) | 500 (≈ 875 µM) | 9 | 11 | 125 (≈ 219 µM) | 500 (≈ 875 µM) | MIC (Klebsiella aerogenes [10]; MTCC 111, 24 h): 500 µg/mL (≈ 875 µM); inhibition (Candida albicans [14]): inactive; inhibition [16]: inactive
3 | CN1C[C@](C#N)(C(=O)c2c[nH]c3ccccc23)[C@]2(C(=O)Nc3ccccc32)[C@@]12C(=O)N(Cc1ccccc1)c1ccccc12 | 500 (≈ 866 µM) | – | 7 | 11 | – | 500 (≈ 866 µM) | 500 µg/mL (≈ 866 µM) | 9.26 | 23.95 | 16.03 | 10 | 9 | 9 | 9 | 125 (≈ 216 µM) | 500 (≈ 866 µM) | 9 | 11 | 125 (≈ 216 µM) | 500 (≈ 866 µM) | inhibition (Salmonella typhimurium [2]; [24]): inactive; MIC (Salmonella typhimurium [5]; [24]): inactive; MIC (Klebsiella aerogenes [10]; MTCC 111, 24 h): 500 µg/mL (≈ 866 µM); inhibition zone (IZ) [16]: 10 mm

From ChEMBL document CHEMBL2331252, “Facile one-pot synthesis of novel dispirooxindole-pyrrolidine derivatives and their antimicrobial and anticancer activity against A549 human lung adenocarcinoma cancer cell line” (Bioorg Med Chem Lett, 2013)
